Each structure is given as a SMILES string.

The target in the first test is Recombinant human JAK1 catalytic domain (Homo sapiens (Human), UniProt P23458). The test can be described thus: JAK1 kinase assay (Z'-LYTE Tyr 6 Peptide). The test is classed as biochemical. Particulars: JAK1 kinase assay, 0.3 uM concentration; read-out: inhibition percentage (IR %). On the procedure: JAK1/2/3 kinase assay are performed in vitro using Kit-Tyr 6 Peptide (Invitrogen, Cat. No. PV4122). TYK2 kinase assay are performed in vitro using Z′-LYTE™ Kinase Assay Kit-Tyr 3 Peptide (Invitrogen, Cat. No. PV3192). […] All compounds are initially tested at 8 different concentrations (1 μM down to 0.0003 μM) using a 1:3 serial dilution scheme.
Sequence of Recombinant human JAK1 catalytic domain (P23458 875-1153): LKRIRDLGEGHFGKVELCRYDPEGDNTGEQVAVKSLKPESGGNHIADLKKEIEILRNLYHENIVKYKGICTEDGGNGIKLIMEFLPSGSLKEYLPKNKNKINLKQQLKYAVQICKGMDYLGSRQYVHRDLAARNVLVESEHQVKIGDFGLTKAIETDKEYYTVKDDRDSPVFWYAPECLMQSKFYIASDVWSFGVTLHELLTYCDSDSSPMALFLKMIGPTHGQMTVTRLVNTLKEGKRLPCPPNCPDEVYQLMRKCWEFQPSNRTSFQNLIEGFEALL
As a reminder, the inhibition is the percentage by which the read-out fell short of the control. With `C[C@H](NC(=O)c1ccc(N(C)[C@@H]2CCN(c3ncnc4[nH]ccc34)C2)c(F)c1)c1ccccc1` [Compound 182], the inhibition at 0.3 µM lay within 50 to 100%. In the case of `CN(c1ccc(NC(=O)C2CC2)cn1)[C@@H]1CCN(c2ncnc3[nH]ccc23)C1` [Compound 229], the inhibition at 0.3 µM is 50 to 100%.

On to `CN(c1ncc(Br)cn1)[C@@H]1CCN(c2ncnc3[nH]ccc23)C1` [Compound 94], for which the inhibition at 0.3 µM fell in the range of 50 to 100%. Still for that read-out and setting: the result for `CC(C)S(=O)(=O)Nc1ccc(N(C)[C@@H]2CCN(c3ncnc4[nH]ccc34)C2)nc1` [Compound 218] reads 50 to 100%; that for `CN(c1ccc(Cl)nn1)[C@@H]1CCN(c2ncnc3[nH]ccc23)C1` [Compound 85], 50 to 100%.

For `C#CCN(c1ccc(C#N)cc1F)[C@@H]1CCN(c2ncnc3[nH]ccc23)C1` [Compound 130], the inhibition at 0.3 µM was 20 to 50%. In the case of `CN(c1ccc(C(=O)N[C@@H](CO)c2ccccc2)cc1Cl)[C@@H]1CCN(c2ncnc3[nH]ccc23)C1` [Compound 205], the inhibition at 0.3 µM is 50 to 100%. As for `CN(c1ccc(C#N)c2ccccc12)[C@@H]1CCN(c2ncnc3[nH]ccc23)C1` [Compound 111], the inhibition at 0.3 µM was 50 to 100%. In the case of `CN(c1cc(F)c(C#N)c(F)c1)[C@@H]1CCN(c2ncnc3[nH]ccc23)C1` [Compound 106], the inhibition at 0.3 µM lay in the range of 50 to 100%. `CN(C(=O)CC1CC1)[C@@H]1CCN(c2ncnc3[nH]ccc23)C1` [Compound 19]: the inhibition at 0.3 µM lay within 20 to 50%.

With `Cc1cc(N(C)[C@@H]2CCN(c3ncnc4[nH]ccc34)C2)ncc1C#N` [Compound 157], the inhibition at 0.3 µM was 50 to 100%. For the molecule `Cc1cc(Cl)nc(N(C)[C@@H]2CCN(c3ncnc4[nH]ccc34)C2)c1C#N` [Compound 73], the inhibition at 0.3 µM is 50 to 100%. For `CN(c1ncc(C#N)cc1[N+](=O)[O-])[C@@H]1CCN(c2ncnc3[nH]ccc23)C1` [Compound 96], the inhibition at 0.3 µM lay within 50 to 100%. Same read-out and setting: the value for `Cc1ccc(N(C)[C@@H]2CCN(c3ncnc4[nH]ccc34)C2)nc1` [Compound 101] was 50 to 100%. Turning to `C[C@H](NC(=O)c1ccc(N(C)[C@@H]2CCN(c3ncnc4[nH]ccc34)C2)nc1)c1ccccc1` [Compound 188], the inhibition at 0.3 µM was 20 to 50%. As for `C[C@H](O)CNS(=O)(=O)c1ccc(N(C)[C@@H]2CCN(c3ncnc4[nH]ccc34)C2)nc1` [Compound 245], the inhibition at 0.3 µM was 50 to 100%.

Turning to `CN(c1c(F)c(F)c(C#N)c(F)c1F)[C@@H]1CCN(c2ncnc3[nH]ccc23)C1` [Compound 117], the inhibition at 0.3 µM was 50 to 100%. For the molecule `CN(C(=O)Nc1ccc(Cl)cc1)[C@@H]1CCN(c2ncnc3[nH]ccc23)C1` [Compound 33], the inhibition at 0.3 µM lay within 50 to 100%. On to `CN(c1ccc(C(=O)NC[C@H](O)c2ccccc2)cc1Cl)[C@@H]1CCN(c2ncnc3[nH]ccc23)C1` [Compound 189], for which the inhibition at 0.3 µM lay within 20 to 50%.

Turning to `CN(c1ccc(NC(=O)c2ccccc2Cl)cn1)[C@@H]1CCN(c2ncnc3[nH]ccc23)C1` [Compound 227], the inhibition at 0.3 µM fell in the range of 50 to 100%.

`COc1nccc(N(C)[C@@H]2CCN(c3ncnc4[nH]ccc34)C2)n1` [Compound 141]: the inhibition at 0.3 µM was 20 to 50%. Same read-out and setting: the value for `CN(c1ccc(C(=O)Nc2ccccc2F)cn1)[C@@H]1CCN(c2ncnc3[nH]ccc23)C1` [Compound 192] was 50 to 100%; that for `N#Cc1ccc(N(CC2CC2)[C@@H]2CCN(c3ncnc4[nH]ccc34)C2)nc1` [Compound 124] was 50 to 100%. The same measure, in the same setting: the value for `CN(c1ccc(S(=O)(=O)NCCO)cn1)[C@@H]1CCN(c2ncnc3[nH]ccc23)C1` [Compound 243] was 50 to 100%; that for `CN(c1ccc(S(=O)(=O)NC2CCC[C@@H]2O)cn1)[C@@H]1CCN(c2ncnc3[nH]ccc23)C1` (some centres unmarked) [Compound 246] was 50 to 100%.

The same test, now with this note: read-out: inhibition percentage (IR %).
Take `CN(c1ccc(NCc2ccc(F)cc2)cn1)[C@@H]1CCN(c2ncnc3[nH]ccc23)C1` [Compound 230, (R)—N^5-(4-fluorobenzyl)-N^2-(1-(7H-pyrrolo[2,3-d]pyrimidin-4-yl)pyrrolidin-3-yl)-N^2-methylpyridine-2,5-diamine]: the inhibition at 0.3 µM is 50 to 100%.

For the origin of these results see patent publication US10111875B2, “Pyrrolopyrimidine compounds and uses thereof” (HUTCHISON MEDIPHARMA LIMITED, priority 2010, dated 2018).
